Patent US10765659B2, “Potentiated tulathromycin” (SEPTEOS, priority 2016, dated 2020)
Read-outs that look alike come from different tables or passages of the source.

Tests used:
[1] = cat; cited from earlier work
[2] = rat; cited from earlier work
strain 13120 (E. coli) = experiment: Growth test / bactericidal action test in liquid medium; format: cell-based; conditions: strain 13120, DMSO, tulathromycin at 4 times its MIC, cineole at mass ratio 1:1 or 1 mg/L
Method: (§1) Growth tests are performed in liquid medium with prior dispersion of the antibiotic booster in a suitable solvent (here DMSO).
(§2) Bacterial growth kinetics are measured in the presence of tulathromycin (at a concentration of 4 or 16 times its MIC); tulathromycin (at a concentration of 4 or 16 times its MIC) and 1,8-cineole at a mass ratio of 1:1; and tulathromycin (at a concentration of 4 or 16 times its MIC) and 1 mg of 1,8-cineole.
1 Growth Test on Strain 13120 (Genus E. coli) […]
diamond: control (bacteria alone in DMSO) square: tulathromycin diluted in DMSO at a concentration of 4 times its MIC triangle: tulathromycin and cineole, diluted in DMSO, tulathromycin is at a concentration of 4 times its MIC, the tulathromycin/cineole mass ratio is 1:1 Cross (x): tulathromycin and cineole, diluted in DMSO, tulathromycin is at a concentration of 4 times its MIC, cineole at 1 mg/L

Staphylococcus [3] = experiment: Resistance test: resistant mutant colonies on Mueller Hinton plate; format: cell-based
Method: One hundred microlitres of a Mueller Hinton broth culture of the strain to be studied (heavy inoculum>10^10 CFU/mL) is spread on a Mueller Hinton plate containing an oil concentration equal to 0.5/1/2/4 times the MIC of tulathromycin. After 48 hours of incubation, the presence or absence of colonies likely to be resistant mutants are observed.

[4] = tested on: strain 13043 (Actinobacillus pleuropneumoniae); experiment: Growth test / bactericidal action test in liquid medium; format: cell-based; conditions: strain 13043, DMSO, tulathromycin at 16 times its MIC, cineole at 1 mg/L
Method: as §1, §2
2 Growth Test on Strain 13043 (Actinobactllus Pleuropneumonlae) […]
diamond: control (bacteria alone in DMSO) square: tulathromycin diluted in DMSO at a concentration of 16 times its MIC triangle: tulathromycin and cineole, diluted in DMSO, tulathromycin is at a concentration of 16 times its MIC, cineole at 1 mg/L
Cross (x): cineole control, at 1 mg/L

[5] = tested on: microorganisms grown in planktonic and biofilm cultures; conditions: Hendry et al., J Antimicrob Chemother 2009; cited from earlier work
E. coli = experiment: MIC measurement in solid agar medium (CLSI); format: cell-based
Method: (§3) “MIC” means “minimal inhibitory concentration”, which is the lowest concentration of substance at which microbial growth is no longer observed after 18 to 24 hours of contact under conditions favourable to microbial growth.
(§4) The minimum inhibitory concentration measurement tests are performed in a solid agar medium according to current international standards (CLSI standards M7-A9 January 12): dispersion of the compounds to be tested in Mueller Hinton agar. An adaptation relating to the hydrophobicity of the compounds and compositions is however necessary to disperse them in the medium: the compounds are diluted in a solvent. The compounds and compositions incorporated in the agar may be first diluted in one or more solvents (Tween® 80 diluted in water, Tween@ 80 diluted in propylene, DMSO diluted in water). The medium may be cation-adjusted. The strains are deposited on the surface of the agar with a Steers apparatus. In the examples, various methods for dissolving the products are tested in parallel to circumvent problems related to the water/solvent distribution coefficient of the molecules (antimicrobial and potentiator) as the bacteria grow only in the aqueous phase. The technical constraint will not affect the in vivo tests. The same dilution methods can be used in liquid media (microplates and tubes). The same methodology is used with fungi.
(§5) MIC measurement: The minimum inhibitory concentration measurement tests are performed in solid agar medium according to current international standards (CLSI standards), according to the protocol defined above. The compounds and compositions incorporated in the agar may be first diluted in one or more solvents (ethanol, or DMSO diluted in water).

Streptococcus suis = experiment: MIC measurement in solid agar medium (CLSI); format: cell-based
Method: as §3, §4, §5

[6] = tested on: Actinobacillus pleuropneumoniae; experiment: MIC measurement in solid agar medium (CLSI); format: cell-based
Method: as §3, §4, §5

Staphylococcus [7] = experiment: MIC measurement in solid agar medium (CLSI); format: cell-based
Method: as §3, §4, §5

Enterococcus = experiment: MIC measurement in solid agar medium (CLSI); format: cell-based
Method: as §3, §4, §5

Cc1ccc(C(C)C)cc1O [carvacrol]
lowest oral lethal dose [1]: 100 mg/kg
lowest oral lethal dose [2]: 100 mg/kg

CC12CCC(CC1)C(C)(C)O2 [cineole, 1,8-cineole]
Bacterial growth kinetics / bactericidal action (FIG. 1) (strain 13120 (E. coli)): increase the bactericidal action of tulathromycin
Development of mutants (Staphylococcus [3]; strain 8146, cineole added to tulathromycin, summary of Table 5): decreases the development of mutants
Bacterial growth kinetics / number of bacteria (FIG. 2) [4]: significantly decrease the number of bacteria
MIC of cineole in the publication [5]: 8000 to 64000 µg/mL

CCCNC[C@]1(O)[C@H](C)O[C@@H](O[C@H]2[C@H](C)[C@@H](O[C@@H]3O[C@H](C)C[C@H](N(C)C)[C@H]3O)[C@](C)(O)C[C@@H](C)CN[C@H](C)[C@@H](O)[C@](C)(O)[C@@H](CC)OC(=O)[C@@H]2C)C[C@@]1(C)OC [ATB]
Development of mutants (Staphylococcus [3]; S. aureus (strain 8147), summary of Table 4): countless mutants
Colonies likely to be resistant mutants after 48 hours (Staphylococcus [3]; strain 8146, ethanol solvent, 0.5 times the MIC of tulathromycin): overgrown
Colonies likely to be resistant mutants after 48 hours (Staphylococcus [3]; strain 8146, ethanol solvent, 1 times the MIC of tulathromycin): overgrown
Colonies likely to be resistant mutants after 48 hours (Staphylococcus [3]; strain 8146, ethanol solvent, 2 times the MIC of tulathromycin): overgrown
Colonies likely to be resistant mutants after 48 hours (Staphylococcus [3]; strain 8146, ethanol solvent, 4 times the MIC of tulathromycin): 0
Colonies likely to be resistant mutants after 48 hours (Staphylococcus [3]; strain 8147, ethanol solvent, 0.5 times the MIC of tulathromycin): overgrown
Colonies likely to be resistant mutants after 48 hours (Staphylococcus [3]; strain 8147, ethanol solvent, 1 times the MIC of tulathromycin): overgrown
Colonies likely to be resistant mutants after 48 hours (Staphylococcus [3]; strain 8147, ethanol solvent, 2 times the MIC of tulathromycin): overgrown
Colonies likely to be resistant mutants after 48 hours (Staphylococcus [3]; strain 8147, ethanol solvent, 4 times the MIC of tulathromycin): overgrown
Bacterial growth kinetics / number of bacteria (FIG. 2) [4]: bacteriostatic
MIC (E. coli; strain 13120, DMSO): 2 µg/mL
MIC (E. coli; strain 13120, EtOH): 2.7 µg/mL
MIC of tulathromycin (E. coli; strain 13120, value used for growth test): 2 µg/mL
MIC (E. coli; strain 13121, DMSO): 2 µg/mL
MIC (E. coli; strain 13121, EtOH): 2.7 µg/mL
MIC (E. coli; strain 13122, DMSO): 2 µg/mL
MIC (E. coli; strain 13122, EtOH): 2 µg/mL
MIC (E. coli; strain 13123, DMSO): 2 µg/mL
MIC (E. coli; strain 13123, EtOH): 2 µg/mL
MIC (E. coli; strain 13124, DMSO): 1.5 µg/mL
MIC (E. coli; strain 13124, EtOH): 2 µg/mL
MIC (E. coli; strain 13125, DMSO): 1.5 µg/mL
MIC (E. coli; strain 13125, EtOH): 1.5 µg/mL
MIC (E. coli; strain 13126, DMSO): 2 µg/mL
MIC (E. coli; strain 13126, EtOH): 2 µg/mL
MIC (E. coli; strain 13128, DMSO): 2 µg/mL
MIC (E. coli; strain 13128, EtOH): 2 µg/mL
MIC (E. coli; strain 13129, DMSO): 2.7 µg/mL
MIC (E. coli; strain 13129, EtOH): 3.6 µg/mL
MIC (E. coli; strain 13130, DMSO): 2 µg/mL
MIC (E. coli; strain 13130, EtOH): 3.6 µg/mL
MIC (E. coli; strain 13131, DMSO): 1.5 µg/mL
MIC (E. coli; strain 13131, EtOH): 1.5 µg/mL
MIC (E. coli; strain 13132, DMSO): 2 µg/mL
MIC (E. coli; strain 13132, EtOH): 2.7 µg/mL
MIC (E. coli; strain 13133, DMSO): 1.5 µg/mL
MIC (E. coli; strain 13133, EtOH): 2 µg/mL
MIC (E. coli; strain 13134, DMSO): 1.5 µg/mL
MIC (E. coli; strain 13134, EtOH): 1.5 µg/mL
MIC (E. coli; strain 13170, DMSO): 1.5 µg/mL
MIC (E. coli; strain 13170, EtOH): 2 µg/mL
MIC (E. coli; strain 13171, DMSO): 2.7 µg/mL
MIC (E. coli; strain 13171, EtOH): 3.6 µg/mL
MIC (E. coli; strain 13172, DMSO): 1.5 µg/mL
MIC (E. coli; strain 13172, EtOH): 1.5 µg/mL
MIC (E. coli; strain 13173, DMSO): 1.5 µg/mL
MIC (E. coli; strain 13173, EtOH): 1.5 µg/mL
MIC (E. coli; strain 13174, DMSO): 2 µg/mL
MIC (E. coli; strain 13174, EtOH): 2 µg/mL
MIC (E. coli; strain 13175, DMSO): 2 µg/mL
MIC (E. coli; strain 13175, EtOH): 3.6 µg/mL
MIC (E. coli; strain Q54IE2, EtOH): 0.8 µg/mL
MIC (E. coli; strain Q96CEB, EtOH): 1.9 µg/mL
MIC (Streptococcus suis; strain 13092, DMSO): 1.1 µg/mL
MIC (Streptococcus suis; strain 13092, EtOH): 1.1 µg/mL
MIC ([6]; strain 13012, DMSO): 2 µg/mL
MIC ([6]; strain 13012, EtOH): 2 µg/mL
MIC ([6]; strain 13030, DMSO): 0.5 µg/mL
MIC ([6]; strain 13030, EtOH): 0.5 µg/mL
MIC ([6]; strain 13032, DMSO): 0.5 µg/mL
MIC ([6]; strain 13032, EtOH): 0.5 µg/mL
MIC ([6]; strain 13041, DMSO): 0.5 µg/mL
MIC ([6]; strain 13041, EtOH): 0.5 µg/mL
MIC ([6]; strain 13042, DMSO): 0.5 µg/mL
MIC ([6]; strain 13042, EtOH): 0.6 µg/mL
MIC ([6]; strain 13043, DMSO): 0.5 µg/mL
MIC ([6]; strain 13043, EtOH): 0.6 µg/mL
MIC of tulathromycin ([6]; strain 13043, value used for growth test): 0.5 mg
MIC ([6]; strain 13045, DMSO): 0.5 µg/mL
MIC ([6]; strain 13045, EtOH): 0.6 µg/mL
MIC (Staphylococcus [7]; strain 8146, EtOH): 0.45 µg/mL
MIC (Staphylococcus [7]; strain 8147, EtOH): 0.45 µg/mL
MIC (Staphylococcus [7]; strain 8148, EtOH): 0.45 µg/mL
MIC (Staphylococcus [7]; strain 8149, EtOH): 0.45 µg/mL
MIC (Staphylococcus [7]; strain 8238, EtOH): 0.45 µg/mL
MIC (Staphylococcus [7]; strain 12216, EtOH): 2.53 µg/mL
MIC (Staphylococcus [7]; strain 13218, EtOH): 1.07 µg/mL
MIC (Staphylococcus [7]; strain 13221, EtOH): 1.07 µg/mL
MIC (Enterococcus; Enterococcus strain without reference (Table 3, r6), EtOH): 0.9 µg/mL
MIC (Enterococcus; Enterococcus strain without reference (Table 3, r7), EtOH): 1.7 µg/mL
MIC (Enterococcus; strain 8152, EtOH): 1 µg/mL
MIC (Enterococcus; strain 8153, EtOH): 1.42 µg/mL
